Assay [1] deals with phosphorylated ERK downstream of KRAS G12C in MIA PaCa2 cells. As to the kind of experiment: Cell p-ERK detection experiment (HTRF) in MIA PaCa2. It is filed as cell-based, human. Conditions: Homo sapiens, MIA PaCa-2, 2 h, MIA PaCa2 cells, 2 hours with compound, Advance ERK phospho-T202/Y204 HTRF kit; read-out: p-ERK IC50. Summed up:
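KRAS G12C-mutant MIA PaCa2 cells (2.5E4 per well, overnight) exposed 2 h to a 3.16-fold compound dilution series at 0.1% DMSO. Lysates probed 4 h with HTRF antibodies to ERK phospho-T202/Y204; inhibition versus DMSO control and blank, IC50 by four-parameter fit.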

A further assay concerns the target T1, KRAS G12C (Homo sapiens, UniProt P01116, G12C).
T1 construct: purchased Reactionbiology
As to the kind of experiment: KRAS G12C NEA-HTRF experiment (SOS1-catalyzed displacement of GDP by GTP). It is filed as biochemical. Summed up: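 His-tagged KRAS G12C preloaded with DY647-GDP was preincubated 15 min at 20 °C with compound, then exchanged with SOS1 (0.2 μM working solution) and GTP (200 μM working solution) for 2 h at 20 °C in the dark. HTRF 665/615 nm ratio with anti-His-Tb was normalised to T0 and no-compound controls; IC50 by four-parameter fit.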
In general terms: TR-FRET usually uses a lanthanide donor and a delayed reading to cut background.

SMILES strings stand for the structures.

T1 sequence (P01116 1-188 isoform P01116-2 G12C): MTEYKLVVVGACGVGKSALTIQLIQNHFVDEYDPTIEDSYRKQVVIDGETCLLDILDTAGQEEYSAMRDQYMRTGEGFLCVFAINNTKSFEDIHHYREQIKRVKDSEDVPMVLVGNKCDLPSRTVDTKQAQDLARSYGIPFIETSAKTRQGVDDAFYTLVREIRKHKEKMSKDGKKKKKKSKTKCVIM

By IC50 is commonly meant the midpoint of a concentration-inhibition curve. Take `C=CC(=O)N1CCN2C(=O)c3c(N4CC(N5CCN(C)CC5)CC4(C)C)nc(-c4ccccc4F)c(Cl)c3OC[C@H]2C1` (stereo partly drawn) [Z454, (6aR)-8-acryloyl-4-chloro-1-(2,2-dimethyl-4-(4-methylpiperazin-1-yl)pyrrolidin-1-yl)-3-(2-fluorophenyl)-6,6a,7,8,9,10-hexahydro-12H-pyrazino[2,1-c]pyrido[3,4-f][1,4]oxazepin-12-one]: the figures for the IC50 (in assay [1]; on KRAS G12C) were 24 nM and 19.8 nM, respectively.
The like results for `C=CC(=O)N1CCN2C(=O)c3c(N4CCN(C)C[C@@H]4C)nc(-c4c(F)cccc4C(F)F)c(Cl)c3OC[C@H]2C1` [Z456, (6aR)-8-acryloyl-4-chloro-3-(2-(difluoromethyl)-6-fluorophenyl)-1-((S)-2,4-dimethylpiperazin-1-yl)-6,6a,7,8,9,10-hexahydro-12H-pyrazino[2,1-c]pyrido[3,4-f][1,4]oxazepin-12-one] were, in that order, 77 nM and 147 nM.
For `C=CC(=O)N1CCN2C(=O)c3c(NC(C)(C)C)nc(-c4ccccc4F)c(Cl)c3OC[C@H]2C1` [Z457, (R)-8-acryloyl-1-(tert-butylamino)-4-chloro-3-(2-fluorophenyl)-6,6a,7,8,9,10-hexahydro-12H-pyrazino[2,1-c]pyrido[3,4-f][1,4]oxazepin-12-one] the same measures were 397 nM and 133 nM.
The like results for `C=CC(=O)N1CCN2C(=O)c3c(N4CC(C(=O)O)CC4(C)C)nc(-c4c(O)cccc4F)c(Cl)c3OC[C@H]2C1` (stereo partly drawn) [Z458, 1-((6aR)-8-acryloyl-4-chloro-3-(2-fluoro-6-hydroxyphenyl)-12-oxo-6,6a,7,8,9,10-hexahydro-12H-pyrazino[2,1-c]pyrido[3,4-f][1,4]oxazepin-1-yl)-5,5-dimethylpyrrolidine-3-carboxylic acid] were, in that order, 6520 nM and 13.9 nM.
As to `C=CC(=O)N1CCN2C(=O)c3c(N4CCC[C@@]4(C)C(=O)NC)nc(-c4c(O)cccc4F)c(Cl)c3OC[C@H]2C1` [Z462, (2S)-1-((6aR)-8-acryloyl-4-chloro-3-(2-fluoro-6-hydroxyphenyl)-12-oxo-6,6a,7,8,9,10-hexahydro-12H-pyrazino[2,1-c]pyrido[3,4-f][1,4]oxazepin-1-yl)-N,2-dimethylpyrrolidine-2-carboxamide], the figures for the IC50 (in assay [1]; at KRAS G12C) were 165 nM and 131 nM, respectively.
The like results for `C=CC(=O)N1CCN2C(=O)c3c(N4C[C@@H](C)N(C)C[C@@H]4C)nc(-c4ccccc4F)c(Cl)c3OC[C@H]2C1` [Z464] were, in that order, 523 nM and 1930 nM.
The like results for `C=CC(=O)N1CCN2C(=O)c3c(N4CC(N5CCN(C)CC5)CC4(C)C)nc(-c4c(O)cccc4F)c(Cl)c3OC[C@H]2C1` (stereo partly drawn) [Z467, (6aR)-8-acryloyl-4-chloro-1-(2,2-dimethyl-4-(4-methylpiperazin-1-yl)pyrrolidin-1-yl)-3-(2-fluoro-6-hydroxyphenyl)-6,6a,7,8,9,10-hexahydro-12H-pyrazino[2,1-c]pyrido[3,4-f][1,4]oxazepin-12-one] were, in that order, 11 nM and 7.7 nM.
Consider `C=CC(=O)N1CCN2C(=O)c3c(N4C[C@H](N5CCN(C)CC5)C[C@@H]4C)nc(-c4ccccc4F)c(Cl)c3OC[C@H]2C1` [Z470-1], for which the values for the half-inhibitory concentration (IC50) (in assay [1]; at KRAS G12C) were 255 nM and 258 nM, respectively.
The like results for `C=CC(=O)N1CCN2C(=O)c3c(N4C[C@@H](N5CCN(C)CC5)C[C@@H]4C)nc(-c4ccccc4F)c(Cl)c3OC[C@H]2C1` [Z470-2] were, in that order, 24 nM and 24.7 nM.
Turning to `C=CC(=O)N1CCN2C(=O)c3c(N4C[C@@H](N(C)C)CC4(C)C)nc(-c4cccc(F)c4F)c(Cl)c3OC[C@H]2C1` [Z473-1, (R)-8-acryloyl-4-chloro-3-(2,3-difluorophenyl)-1-((S)-4-(dimethylamino)-2,2-dimethylpyrrolidin-1-yl)-6,6a,7,8,9,10-hexahydro-12H-pyrazino[2,1-c]pyrido[3,4-f][1,4]oxazepin-12-one], the IC50 stood at 151 nM in assay [1] and 105 nM at KRAS G12C.
In the case of `C=CC(=O)N1CCN2C(=O)c3c(N4CC(N5CCN(C)CC5)CC4(C)C)nc(-c4ccccc4F)c(F)c3OC[C@H]2C1` (stereo partly drawn) [Z474, (6aR)-8-acryloyl-1-(2,2-dimethyl-4-(4-methylpiperazin-1-yl)pyrrolidin-1-yl)-4-fluoro-3-(2-fluorophenyl)-6,6a,7,8,9,10-hexahydro-12H-pyrazino[2,1-c]pyrido[3,4-f][1,4]oxazepin-12-one], the half-inhibitory concentration (IC50) in assay [1] stood at 90 nM; on KRAS G12C it was 105 nM.
For `C=CC(=O)N1CCN2C(=O)c3c(N4C[C@@H](N(C)C)CC4(C)C)nc(-c4c(F)ccc(F)c4O)c(Cl)c3OC[C@H]2C1` [Z475-1, (6aR)-8-acryloyl-4-chloro-3-(3,6-difluoro-2-hydroxyphenyl)-1-((S)-4-(dimethylamino)-2,2-dimethylpyrrolidin-1-yl)-6,6a,7,8,9,10-hexahydro-12H-pyrazino[2,1-c]pyrido[3,4-f][1,4]oxazepin-12-one] the same measures were 35 nM and 22.5 nM.
The like results for `C=CC(=O)N1CCN2C(=O)c3c(N4CCN(C(=O)CC)C[C@@H]4C)nc(-c4ccccc4F)c(Cl)c3OC[C@H]2C1` [Z477, (R)-8-acryloyl-4-chloro-3-(2-fluorophenyl)-1-((S)-2-methyl-4-propionylpiperazin-1-yl)-6,6a,7,8,9,10-hexahydro-12H-pyrazino[2,1-c]pyrido[3,4-f][1,4]oxazepin-12(6aH)-one] were, in that order, 61 nM and 57 nM.
`C=CC(=O)N1CCN2C(=O)c3c(N4C[C@@H](N5CC(OC)C5)CC4(C)C)nc(-c4ccccc4F)c(Cl)c3OC[C@H]2C1` [Z479-1, (R)-8-acryloyl-4-chloro-3-(2-fluorophenyl)-1-((S)-4-(3-methoxyazetidin-1-yl)-2,2-dimethylpyrrolidin-1-yl)-6,6a,7,8,9,10-hexahydro-12H-pyrazino[2,1-c]pyrido[3,4-f][1,4]oxazepin-12-one]: the 50% inhibitory concentration (IC50) was 30 nM in assay [1] and 65.2 nM on KRAS G12C.
For `C=CC(=O)N1CCN2C(=O)c3c(N4C[C@@H](N5CC(F)C5)CC4(C)C)nc(-c4ccccc4F)c(Cl)c3OC[C@H]2C1` [Z480-1, (R)-8-acryloyl-4-chloro-1-((S)-4-(3-fluoroazetidin-1-yl)-2,2-dimethylpyrrolidin-1-yl)-3-(2-fluorophenyl)-6,6a,7,8,9,10-hexahydro-12H-pyrazino[2,1-c]pyrido[3,4-f][1,4]oxazepin-12-one] the same measures were 13 nM and 17.9 nM.
The like results for `C=CC(=O)N1CCN2C(=O)c3c(N4C[C@@H](O)CC4(C)C)nc(-c4c(N)cccc4F)c(F)c3OC[C@H]2C1` [Z481, (6aR)-8-acryloyl-3-(2-amino-6-fluorophenyl)-4-fluoro-1-((S)-4-hydroxy-2,2-dimethylpyrrolidin-1-yl)-6,6a,7,8,9,10-hexahydro-12H-pyrazino[2,1-c]pyrido[3,4-f][1,4]oxazepin-12-one] were, in that order, 13 nM and 42 nM.
For `C=CC(=O)N1CCN2C(=O)c3c(N4CC[C@@H](N(C)C)C4(C)C)nc(-c4ccccc4F)c(Cl)c3OC[C@H]2C1` [Z502-1, (6aR)-8-acryloyl-4-chloro-1-(3-(dimethylamino)-2,2-dimethylpyrrolidin-1-yl)-3-(2-fluorophenyl)-6,6a,7,8,9,10-hexahydro-12H-pyrazino[2,1-c]pyrido[3,4-f][1,4]oxazepin-12(6aH)-one] the same measures were 196 nM and 280 nM.
As to `C=CC(=O)N1CCN2C(=O)c3c(N4CC[C@H](N(C)C)C4(C)C)nc(-c4ccccc4F)c(Cl)c3OC[C@H]2C1` [Z502-2, (6aR)-8-acryloyl-4-chloro-1-(3-(dimethylamino)-2,2-dimethylpyrrolidin-1-yl)-3-(2-fluorophenyl)-6,6a,7,8,9,10-hexahydro-12H-pyrazino[2,1-c]pyrido[3,4-f][1,4]oxazepin-12(6aH)-one], the IC50 in assay [1] was 124 nM; on KRAS G12C, 160 nM.
For `C=CC(=O)N1CCN2C(=O)c3c(N4CCN(C)C[C@@H]4C)nc(-c4c(N)cccc4F)c(Cl)c3OC[C@H]2C1` [Z503, (6aR)-8-acryloyl-3-(2-amino-6-fluorophenyl)-4-chloro-1-((S)-2,4-dimethylpiperazin-1-yl)-6,6a,7,8,9,10-hexahydro-12H-pyrazino[2,1-c]pyrido[3,4-f][1,4]oxazepin-12-one] the same measures were 42 nM and 176 nM.
The like results for `C=CC(=O)N1CCN2C(=O)c3c(N4CCC(OC)C4(C)C)nc(-c4c(N)cccc4F)c(Cl)c3OC[C@H]2C1` (stereo partly drawn) [Z506, (6aR)-8-acryloyl-3-(2-amino-6-fluorophenyl)-4-chloro-1-(3-methoxy-2,2-dimethylpyrrolidin-1-yl)-6,6a,7,8,9,10-hexahydro-12H-pyrazino[2,1-c]pyrido[3,4-f][1,4]oxazepin-12-one] were, in that order, 11 nM and 18.3 nM.
For `C=CC(=O)N1CCN2C(=O)c3c(N4CC(N5CCC(F)(F)C5)CC4(C)C)nc(-c4ccccc4F)c(Cl)c3OC[C@H]2C1` (stereo partly drawn) [Z532, (6aR)-8-acryloyl-4-chloro-1-(3,3-difluoro-5′,5′-dimethyl-[1,3′-bipyrrolidin]-1′-yl)-3-(2-fluorophenyl)-6,6a,7,8,9,10-hexahydro-12H-pyrazino[2,1-c]pyrido[3,4-f][1,4]oxazepin-12-one] the same measures were 85 nM and 44 nM.

These data come from US20230203060A1 (GENFLEET THERAPEUTICS (SHANGHAI) INC., priority 2020, published 2023).
